Publication PMC11247499, “2,8-Disubstituted-1,5-naphthyridines as Dual Inhibitors of Plasmodium falciparum Phosphatidylinositol-4-kinase and Hemozoin Formation with In Vivo Efficacy” (Journal of Medicinal Chemistry, 2024)
Values after ≈ are worked out from the molar mass of the structure shown. Values joined by “and” are separate entries in the source; they are usually repeats but may differ in a detail not shown here. Equal values may be shown once. Read-outs that look alike come from different tables or passages of the source.

Assays:
β-hematin (βH) formation = test: NP-40 mediated cell-free β-hematin assay; conditions: read-out: β-hematin IC50
[1] = Solubility, miniaturized shake flask method; conditions: aqueous solution
PvPI4K = PvPI4K (Plasmodium vivax, UniProt A5KB26); test: biochemical; conditions: purified recombinant PvPI4K, 10 μM ATP, ADP-Glo; mean of N ≥ 2; read-out: PvPI4K IC50 ± SD
PvPI4K, sequence (A5KB26 entry or part of it): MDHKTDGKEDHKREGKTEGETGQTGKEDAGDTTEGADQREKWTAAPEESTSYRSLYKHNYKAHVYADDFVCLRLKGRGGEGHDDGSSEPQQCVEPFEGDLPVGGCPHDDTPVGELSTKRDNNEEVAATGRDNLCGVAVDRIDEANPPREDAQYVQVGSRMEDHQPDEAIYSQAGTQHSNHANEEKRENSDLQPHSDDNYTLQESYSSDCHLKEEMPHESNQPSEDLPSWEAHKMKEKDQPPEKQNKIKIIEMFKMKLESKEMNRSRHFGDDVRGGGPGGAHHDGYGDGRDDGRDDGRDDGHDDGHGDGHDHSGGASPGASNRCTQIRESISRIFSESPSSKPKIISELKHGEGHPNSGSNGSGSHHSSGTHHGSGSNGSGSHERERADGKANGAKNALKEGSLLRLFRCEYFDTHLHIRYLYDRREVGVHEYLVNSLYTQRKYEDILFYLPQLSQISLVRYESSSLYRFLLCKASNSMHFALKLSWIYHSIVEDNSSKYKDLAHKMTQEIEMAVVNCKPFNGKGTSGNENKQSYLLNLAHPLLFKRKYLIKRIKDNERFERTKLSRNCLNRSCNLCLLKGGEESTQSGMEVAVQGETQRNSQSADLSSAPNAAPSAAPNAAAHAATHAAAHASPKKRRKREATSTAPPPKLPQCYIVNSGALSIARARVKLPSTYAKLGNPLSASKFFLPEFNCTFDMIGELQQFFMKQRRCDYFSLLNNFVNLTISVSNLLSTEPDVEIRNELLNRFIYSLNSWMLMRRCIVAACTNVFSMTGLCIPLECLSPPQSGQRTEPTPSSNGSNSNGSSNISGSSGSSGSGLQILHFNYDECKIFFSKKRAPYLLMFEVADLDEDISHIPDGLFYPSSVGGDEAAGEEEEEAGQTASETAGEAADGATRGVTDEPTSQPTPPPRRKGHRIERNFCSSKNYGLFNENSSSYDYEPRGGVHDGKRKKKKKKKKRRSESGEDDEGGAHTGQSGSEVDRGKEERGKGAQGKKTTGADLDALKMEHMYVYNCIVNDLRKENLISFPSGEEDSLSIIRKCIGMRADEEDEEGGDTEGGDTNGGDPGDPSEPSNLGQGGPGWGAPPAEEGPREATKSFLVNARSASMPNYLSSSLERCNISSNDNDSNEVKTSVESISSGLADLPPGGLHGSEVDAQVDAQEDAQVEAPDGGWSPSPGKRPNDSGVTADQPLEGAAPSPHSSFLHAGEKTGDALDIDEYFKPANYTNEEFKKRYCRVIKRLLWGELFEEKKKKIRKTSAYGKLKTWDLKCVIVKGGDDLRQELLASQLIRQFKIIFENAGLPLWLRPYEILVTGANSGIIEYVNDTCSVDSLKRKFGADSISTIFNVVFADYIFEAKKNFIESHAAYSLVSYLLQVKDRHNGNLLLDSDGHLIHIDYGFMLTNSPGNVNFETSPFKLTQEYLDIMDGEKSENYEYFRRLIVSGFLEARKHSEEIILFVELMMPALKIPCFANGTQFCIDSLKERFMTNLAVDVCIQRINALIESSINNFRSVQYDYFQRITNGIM

[2] = test system: P. falciparum NF54 strain; test: Antiplasmodial activity, parasite lactate dehydrogenase assay, NF54; assay type: cell-based, Plasmodium falciparum; conditions: parasite lactate dehydrogenase assay over 72 h, read-out: Pf IC50 ± SD NF54
[3] = test system: Chinese Hamster Ovary (CHO) cell line; test: cells; assay type: cell-based; conditions: MTT assay over 48h, read-out: CHO IC50
[4] = test system: multidrug-resistant strain, K1; test: Antiplasmodial activity, parasite lactate dehydrogenase assay, K1; assay type: cell-based, Plasmodium falciparum; conditions: parasite lactate dehydrogenase assay over 72 h, read-out: Pf IC50 ± SD K1
[5] = test system: P. falciparum PI4K conditional knockdown line; test: microbe, parasite or virus in culture; assay type: cell-based, Plasmodium falciparum
[6] = cell-free NP-40 detergent-mediated assay, n = 2
[7] = Plasmodium falciparum, NF54, 72 h
[8] = Plasmodium falciparum, K1, 72 h

Compound | solubility at 20 h [1] [µM] | IC50 (β-hematin (βH) formation; [6]) | IC50 (PvPI4K) [nM] | IC50 [2, 7] [nM] | IC50 ([3]; Cricetulus griseus, CHO) [nM] | IC50 [4, 8] [nM] | also measured
CCN(CC)CCCC(C)Nc1ccnc2cc(Cl)ccc12 (centres unmarked) [Chloroquine, reference compound] | – | – | – | – | – | – | IC50 (β-hematin (βH) formation): 21000 ± 2100 nM
CS(=O)(=O)c1cccc(-c2ccc3nccc(NC4CCCNC4)c3n2)c1 (centres unmarked) [Compound 8, 6-(3-Methylsulfonylphenyl)-N-piperidin-3-yl-1,5-naphthyridin-4-amine] | 195 (≈ 74.6 µg/mL) | > 500000 nM | 151 ± 72 | 200 ± 2 | 33300 | – | –
CS(=O)(=O)c1cccc(-c2ccc3nccc(N4CC[C@@H](N)C4)c3n2)c1 [Compound 9, (3R)-1-[6-(3-Methylsulfonylphenyl)-1,5-naphthyridin-4-yl]pyrrolidin-3-amine] | 200 (≈ 73.7 µg/mL) | – | 199 ± 37 | 100 ± 5 | 22000 | – | –
CC(=O)N[C@@H]1CCN(c2ccnc3ccc(-c4cccc(S(C)(=O)=O)c4)nc23)C1 [Compound 10, N-[(3R)-1-[6-(3-Methylsulfonylphenyl)-1,5-naphthyridin-4-yl]pyrrolidin-3-yl]acetamide] | 185 (≈ 75.9 µg/mL) | – | 76 ± 6 | 890 ± 57 | – | – | –
CS(=O)(=O)c1cccc(-c2ccc3nccc(N4CC[C@@H](NC(N)=O)C4)c3n2)c1 [Compound 11, [(3R)-1-[6-(3-Methylsulfonylphenyl)-1,5-naphthyridin-4-yl]pyrrolidin-3-yl]urea] | – | – | 39 ± 7 | 630 ± 133 | – | – | –
FC(F)(F)c1ccc(-c2ccc3nccc(NC4CCCNC4)c3n2)cn1 (centres unmarked) [Compound 12, N-Piperidin-3-yl-6-[6-(trifluoromethyl)pyridin-3-yl]-1,5-naphthyridin-4-amine] | 195 (≈ 72.8 µg/mL) | 66000 ± 1000 nM | 276 ± 33 | 90 ± 1 | 43000 | – | –
N[C@@H]1CCN(c2ccnc3ccc(-c4ccc(C(F)(F)F)nc4)nc23)C1 [Compound 13, (3R)-1-[6-[6-(Trifluoromethyl)pyridin-3-yl]-1,5-naphthyridin-4-yl]pyrrolidin-3-amine] | 135 (≈ 48.5 µg/mL) | – | 1200 ± 481 | 60 ± 8 | 20000 | 110 ± 13 | –
FC(F)(F)c1ccc(-c2ccc3nccc(N[C@H]4CCNC4)c3n2)cn1 [Compound 15, N-[(3S)-Pyrrolidin-3-yl]-6-[6-(trifluoromethyl)pyridin-3-yl]-1,5-naphthyridin-4-amine] | 200 (≈ 71.9 µg/mL) | – | 164 ± 69 | 70 ± 13 | 46000 | – | –
NC1CCN(c2ccnc3ccc(-c4ccc(C(F)(F)F)nc4)nc23)CC1 [Compound 18, 1-[6-[6-(Trifluoromethyl)pyridin-3-yl]-1,5-naphthyridin-4-yl]piperidin-4-amine] | 160 (≈ 59.7 µg/mL) | 137000 ± 4000 nM | 559 ± 30 | 420 ± 87 | > 50000 | 477 ± 34 | –
FC(F)(F)c1ccc(-c2ccc3nccc(OC4CCNCC4)c3n2)cn1 [Compound 19, 8-Piperidin-4-yloxy-2-[6-(trifluoromethyl)pyridin-3-yl]-1,5-naphthyridine] | – | 94000 ± 3000 nM | 265 ± 160 | 3850 ± 954 | – | – | –
FC(F)(F)c1ccc(-c2ccc3nccc(NCC4CCNCC4)c3n2)cn1 [Compound 20, N-(Piperidin-4-ylmethyl)-6-[6-(trifluoromethyl)pyridin-3-yl]-1,5-naphthyridin-4-amine] | 190 (≈ 73.6 µg/mL) | 37000 nM and < 60000 nM | 1510 ± 643 | 65 ± 2 | > 50000 | 350 ± 4 | –
OCCN1CCC(Nc2ccnc3ccc(-c4ccc(C(F)(F)F)nc4)nc23)CC1 [Compound 22, 2-[4-[[6-[6-(Trifluoromethyl)pyridin-3-yl]-1,5-naphthyridin-4-yl]amino]piperidin-1-yl]ethanol] | 145 (≈ 60.5 µg/mL) | – | 303 ± 74 | 253 ± 2 | – | 385 ± 41 | –
CC1CNCCC1Nc1ccnc2ccc(-c3ccc(C(F)(F)F)nc3)nc12 (centres unmarked) [Compound 24, N-(3-Methylpiperidin-4-yl)-6-[6-(trifluoromethyl)pyridin-3-yl]-1,5-naphthyridin-4-amine] | 195 (≈ 75.5 µg/mL) | – | 131 ± 89 | 50 ± 25 | 47000 | 104 ± 9 | –
CN1CCC(Nc2ccnc3ccc(-c4cccnc4)nc23)CC1 [Compound 29, N-(1-Methylpiperidin-4-yl)-6-pyridin-3-yl-1,5-naphthyridin-4-amine] | 195 (≈ 62.3 µg/mL) | – | 64 ± 14 | 526 ± 47 | > 50000 | 1280 ± 148 | –
CN1CCC(Nc2ccnc3ccc(-c4cccnc4C(F)(F)F)nc23)CC1 [Compound 30, N-(1-Methylpiperidin-4-yl)-6-[2-(trifluoromethyl)pyridin-3-yl]-1,5-naphthyridin-4-amine] | 200 (≈ 77.5 µg/mL) | 75000 ± 6000 nM | 170 ± 38 | 270 ± 96 | > 50000 | 300 ± 11 | –
Cc1nc(C(F)(F)F)ccc1-c1ccc2nccc(NC3CCN(C)CC3)c2n1 [Compound 31, N-(1-Methylpiperidin-4-yl)-6-[2-methyl-6-(trifluoromethyl)pyridin-3-yl]-1,5-naphthyridin-4-amine] | 195 (≈ 78.3 µg/mL) | – | 174 ± 102 | 499 ± 24 | > 50000 | 367 ± 5 | –
CN1CCC(Nc2ccnc3ccc(-c4ccc(C#N)nc4)nc23)CC1 [Compound 32, 5-[8-[(1-Methylpiperidin-4-yl)amino]-1,5-naphthyridin-2-yl]pyridine-2-carbonitrile] | 200 (≈ 68.9 µg/mL) | 51000 ± 2000 nM | 676 ± 23 | 160 ± 40 | > 50000 | 730 ± 53 | –
CNC(=O)c1ccc(-c2ccc3nccc(NC4CCN(C)CC4)c3n2)cn1 [Compound 33, N-Methyl-5-[8-[(1-methylpiperidin-4-yl)amino]-1,5-naphthyridin-2-yl]pyridine-2-carboxamide] | – | 131000 ± 6000 nM | 77 ± 48 | 400 ± 1 | 25000 | > 6000 | –
CN1CCC(Nc2ccnc3ccc(-c4ccc(OCCCO)nc4)nc23)CC1 [Compound 35, 3-[5-[8-[(1-Methylpiperidin-4-yl)amino]-1,5-naphthyridin-2-yl]pyridin-2-yl]oxypropan-1-ol] | 200 (≈ 78.7 µg/mL) | > 200000 nM | 19 ± 12 | 203 ± 6 | > 50000 | 462 ± 52 | –
CN1CCC(Nc2cc(N)nc3ccc(-c4ccc(C(F)(F)F)nc4)nc23)CC1 [Compound 36, 4-N-(1-Methylpiperidin-4-yl)-6-[6-(trifluoromethyl)pyridin-3-yl]-1,5-naphthyridine-2,4-diamine] | 180 (≈ 72.4 µg/mL) | 35000 nM and < 60000 nM | 9400 ± 849 | 40 ± 11 | 26000 | 192 ± 7 | –
CN1CCC(Nc2cc(=O)[nH]c3ccc(-c4ccc(C(F)(F)F)nc4)nc23)CC1 [Compound 37, 4-[(1-Methylpiperidin-4-yl)amino]-6-[6-(trifluoromethyl)pyridin-3-yl]-1H-1,5-naphthyridin-2-one] | 45 (≈ 18.2 µg/mL) | – | > 10000 | 4200 ± 1000 | – | – | –
CS(=O)(=O)c1ccc(-c2cnc(N)c(-c3ccc(C(F)(F)F)nc3)c2)cc1 [MMV390048, reference compound] | – | – | – | 36 | – | – | IC50 ([5]; Plasmodium falciparum, 72 h, read-out: ABS IC50 for PfPI4K cKD, N=1, +aTc, experiment N=1, +aTc (500 nM, control conditions), 72 hours): 31 nM; IC50 ([5]; Plasmodium falciparum, 72 h, read-out: ABS IC50 for PfPI4K cKD, N=1, no aTc, experiment N=1, no aTc (PI4K knockdown), 72 hours): 4 nM; IC50 ([5]; Plasmodium falciparum, 72 h, read-out: ABS IC50 for PfPI4K cKD, N=2, +aTc, experiment N=2, +aTc (500 nM, control conditions), 72 hours): 29 nM; IC50 ([5]; Plasmodium falciparum, 72 h, read-out: ABS IC50 for PfPI4K cKD, N=2, no aTc, experiment N=2, no aTc (PI4K knockdown), 72 hours): 4.31 nM; IC50 ([5]; Plasmodium falciparum, 72 h, read-out: ABS IC50 for PfPI4K cKD, N=3, +aTc, experiment N=3, +aTc (500 nM, control conditions), 72 hours): 25 nM; IC50 ([5]; Plasmodium falciparum, 72 h, read-out: ABS IC50 for PfPI4K cKD, N=3, no aTc, experiment N=3, no aTc (PI4K knockdown), 72 hours): 3.48 nM; IC50 ([5]; Plasmodium falciparum, read-out: ABS IC50 for PfPI4K cKD, Mean + SD, +aTc, mean of N=3, +aTc (control conditions)): 26 ± 3 nM; IC50 ([5]; Plasmodium falciparum, read-out: ABS IC50 for PfPI4K cKD, Mean + SD, no aTc, mean of N=3, no aTc (PI4K knockdown)): 3.7 ± 0.4 nM; IC50 ([5]; read-out: ABS IC50 for PfPI4K cKD, N=1, +aTc, experiment N=1, +aTc (500 nM, control conditions), 72 hours): 27 nM; IC50 ([5]; read-out: ABS IC50 for PfPI4K cKD, N=2, +aTc, experiment N=2, +aTc (500 nM, control conditions), 72 hours): 21 nM; IC50 ([5]; read-out: ABS IC50 for PfPI4K cKD, N=2, no aTc, experiment N=2, no aTc (PI4K knockdown), 72 hours): 3.39 nM; IC50 ([5]; read-out: ABS IC50 for PfPI4K cKD, N=3, +aTc, experiment N=3, +aTc (500 nM, control conditions), 72 hours): 23 nM; IC50 ([5]; read-out: ABS IC50 for PfPI4K cKD, N=3, no aTc, experiment N=3, no aTc (PI4K knockdown), 72 hours): 3.31 nM
(R)-6-(6-Methoxypyridin-3-yl)-N-(pyrrolidin-3-yl)-1,5-naphthyridin-4-amine [Compound 34] | – | – | 111 ± 69 | – | – | – | IC50 [4]: 667 ± 60 nM; IC50 [2]: 225 ± 7 nM; IC50 [3]: 17000 nM
